Columns and labels:
Assay type in all cases: in vivo
Stellaria media = assay: Pre-emergence herbicidal effect; conditions: 1280 g/ha, visual assessment after 3 weeks
Source text: (§1) 1. Pre-Emergence Herbicidal Effect and Crop Plant Compatibility Seeds of monocotyledonous and dicotyledonous weed plants and crop plants are placed in wood-fiber pots in sandy loam and covered with soil. The inventive compounds, formulated in the form of wettable powders (WP) or as emulsion concentrates (EC), are then applied to the surface of the covering soil as an aqueous suspension or emulsion at a water application rate of 600 to 800 I/ha (converted) with addition of 0.2% wetting agent. After the treatment, the pots are placed in a greenhouse and kept under good growth conditions for the test plants. The damage to the test plants is assessed visually after a test period of 3 weeks by comparison with untreated controls (herbicidal activity in percent (%): 100% action=the plants have died, 0% action=like control plants). STEME: Stellaria media VERPE: Veronica persica

Veronica persica = assay: Pre-emergence herbicidal effect; conditions: 1280 g/ha, visual assessment after 3 weeks
Source text: as §1

Abutilon theophrasti [1] = assay: Post-emergence herbicidal effect; conditions: 1280 g/ha, visual rating after about 3 weeks
Experimental: ABUTH: Abutilon theophrasti ALOMY: Alopecurus myosuroides 2. Post-Emergence Herbicidal Effect and Crop Plant Compatibility Seeds of monocotyledonous and dicotyledonous weed and crop plants are placed in sandy loam in wood-fiber pots, covered with soil and cultivated in a greenhouse under good growth conditions. 2 to 3 weeks after sowing, the test plants are treated at the one-leaf stage. The compounds according to the invention, formulated in the form of wettable powders (WP) or as emulsion concentrates (EC), are then sprayed as aqueous suspension or emulsion at a water application rate of 600 to 800 I/ha (converted) with the addition of 0.2% of wetting agent onto the green parts of the plants. After the test plants have been kept in the greenhouse under optimum growth conditions for about 3 weeks, the activity of the preparations is rated visually in comparison to untreated controls (herbicidal activity in percent (%): 100% activity=the plants have died, 0% activity=like control plants).

Viola tricolor = assay: Pre-emergence herbicidal effect; conditions: 1280 g/ha, visual assessment after 3 weeks
Source text: as §1, with “VIOTR: Viola tricolor” for “STEME: Stellaria media VERPE: Veronica persica”

Matricaria inodora = assay: Pre-emergence herbicidal effect; conditions: 1280 g/ha, visual assessment after 3 weeks
Source text: as §1, with “LOLMU: Lolium multiflorum MATIN: Matricaria inodora” for “STEME: Stellaria media VERPE: Veronica persica”

Lolium multiflorum = assay: Pre-emergence herbicidal effect; conditions: 1280 g/ha, visual assessment after 3 weeks
Source text: as §1, with “LOLMU: Lolium multiflorum MATIN: Matricaria inodora” for “STEME: Stellaria media VERPE: Veronica persica”

Abutilon theophrasti [2] = assay: Pre-emergence herbicidal effect; conditions: 1280 g/ha, visual assessment after 3 weeks
Source text: as §1, with “ABUTH: Abutilon theophrasti ALOMY: Alopecurus myosuroides” for “STEME: Stellaria media VERPE: Veronica persica”

Alopecurus myosuroides = assay: Pre-emergence herbicidal effect; conditions: 1280 g/ha, visual assessment after 3 weeks
Source text: as §1, with “ABUTH: Abutilon theophrasti ALOMY: Alopecurus myosuroides” for “STEME: Stellaria media VERPE: Veronica persica”

Setaria viridis = assay: Pre-emergence herbicidal effect; conditions: 1280 g/ha, visual assessment after 3 weeks
Source text: as §1, with “POLCO: Polygonum convolvulus SETVI: Setaria viridis” for “STEME: Stellaria media VERPE: Veronica persica”

Polygonum convolvulus = assay: Pre-emergence herbicidal effect; conditions: 1280 g/ha, visual assessment after 3 weeks
Source text: as §1, with “POLCO: Polygonum convolvulus SETVI: Setaria viridis” for “STEME: Stellaria media VERPE: Veronica persica”

Echinochloa crus-galli = assay: Pre-emergence herbicidal effect; conditions: 1280 g/ha, visual assessment after 3 weeks
Source text: as §1, with “AMARE: Amaranthus retroflexus ECHCG: Echinochloa crus-galli” for “STEME: Stellaria media VERPE: Veronica persica”

Amaranthus retroflexus = assay: Pre-emergence herbicidal effect; conditions: 1280 g/ha, visual assessment after 3 weeks
Source text: as §1, with “AMARE: Amaranthus retroflexus ECHCG: Echinochloa crus-galli” for “STEME: Stellaria media VERPE: Veronica persica”

| SMILES | herbicidal activity STEME (Stellaria media) [%] | herbicidal activity VERPE (Veronica persica) [%] | herbicidal activity ABUTH (Abutilon theophrasti [1]) [%] | herbicidal activity VIOTR (Viola tricolor) [%] | herbicidal activity MATIN (Matricaria inodora) [%] | herbicidal activity LOLMU (Lolium multiflorum) [%] | herbicidal activity ABUTH (Abutilon theophrasti [2]) [%] | herbicidal activity ALOMY (Alopecurus myosuroides) [%] | herbicidal activity SETVI (Setaria viridis) [%] | herbicidal activity POLCO (Polygonum convolvulus) [%] | herbicidal activity ECHCG (Echinochloa crus-galli) [%] | herbicidal activity AMARE (Amaranthus retroflexus) [%] |
| --- | --- | --- | --- | --- | --- | --- | --- | --- | --- | --- | --- | --- |
| CCc1ccc2c(c1)C(Nc1cnc(S(C)(=O)=O)nc1)CCO2 (racemic) [compound 65] | 100 | 100 | 90 | 100 | 100 | 90 | 100 | 90 | 100 | 100 | 100 | 100 |
| Cc1ccc2c(c1)[C@H](Nc1cnc(S(C)(=O)=O)nc1)[C@@H](C)C2 [compound 134] | 100 | 100 | 90 | 100 | 100 | 100 | 100 | 100 | 100 | 100 | 100 | 100 |
| CCc1ccc2c(c1)C(Nc1cnc(S(C)(=O)=O)nc1C(=O)O)CCO2 (racemic) [compound 68] | 100 | 100 | 90 | 100 | 100 | 90 | 100 | 100 | 100 | 100 | 100 | 100 |

Source: patent US9375002B2, “5-aminopyrimidine derivatives and use thereof for combating undesired plant growth” (BAYER INTELLECTUAL PROPERTY GMBH, priority 2012, dated 2016)
